# In patent US12433857B2, “Conjugate and cancer therapeutic agent” (Tokyo Institute of Technology, priority 2019, dated 2025):
# Entries after “also recorded” stand apart in the source; their conditions may differ. Where a name gives a salt, the structure may show the parent alone.
# Legend:
# DLD-1 cells [1] = assay: Cell cycle analysis by propidium iodide staining; type: cell-based, human; conditions: 72 hours
# Procedure: The cell cycle was analyzed by propidium iodide (PI) staining to investigate the mechanism of cancer cell proliferation suppression of DFO and PEG-P[Asp(DFO)m]n.
# [Preparation of DFO Solution and PEG-P[Asp(DFO)10]35 Solution] • DFO/D-PBS solution: 45.0 μM • PEG-P[Asp(DFO)10]35/D-PBS solution: 61.0 μM (DFO concentration=600 μM)
# DLD-1 cells were seeded on a 6-well plate at 2.0×10^5 cells/well and pre-cultured at 37° C. under 5% CO2 for 24 hours. The prepared solution described above was diluted 10-fold with RPMI, and then 3 mL was added to each well followed by incubating for 72 hours. After washing with 3 mL of D-PBS, 700 μL of a Trypsin-EDTA solution was added thereto followed by incubating for 10 min. After confirming that the cells had been peeled off under an optical microscope, 700 μL of D-PBS containing 10% FBS was added thereto, and the cells were sufficiently suspended. The suspension was centrifuged at 1,200 rpm for 3 min to remove the supernatant. 500 μL of D-PBS was added to the cell pellet, which was subsequently suspended. The suspension was dropwise added to 4.5 mL of 70% ethanol and fixed in a −20° C. freezer overnight. […] Finally, the suspension was filtered through a cell strainer, and the fluorescence of propidium iodide was measured using FCM. The measured data were analyzed by ModFit LT. […]
# DLD-1 cells [2] = assay: Cell proliferation suppressive action by CCK-8 assay; type: cell-based, human; conditions: 72 hours, CCK-8, absorbance at 450 nm
# Procedure: The cancer cell proliferation suppressive action of PEG-P[Asp(DFO)m]n was evaluated by CCK-8 assay.
# [Preparation of DFO Solution, PEG-P[Asp(DFO)10]35 Solution, and PEG-P[Asp(DFO)26]78 Solution] • DFO/D-PBS solution: 3.00 mM • PEG-P[Asp(DFO)10]35/D-PBS solution: 0.305 mM (DFO concentration=3.00 mM) • PEG-P[Asp(DFO)26]78/D-PBS solution: 0.118 mM (DFO concentration=3.00 mM)
# DLD-1 cells were seeded on a 96-well plate at 1.0×10^3 cells/well and pre-cultured at 37° C. under 5% CO2 for 24 hours. 10 μL of the prepared solution described above was added to each well followed by incubating for 72 hours. 10 μL of CCK-8 solution was added to each well, and after incubating for 2 hours, the absorbance at 450 nm was measured. The results are shown as the value of mean±S.D. (n=5), and a statistically significant difference was evaluated by the t-test (****p<0.0001).
# [3] = Pharmacokinetics (blood retention, tumor accumulation) in subcutaneous CT26 tumor mouse model; type: in vivo; conditions: intravenous
# Procedure: To evaluate the blood retention and the tumor accumulation of DFO and PEG-P[Asp(DFO)m]n), a DFO/Ga (III) complex and a PEG-P[Asp(DFO)m]n/Ga (III) complex were intravenously injected into the subcutaneous CT26 tumor mouse model, and the Ga contents in the blood and the tumor after a predetermined period of time were measured by ICP-MS.
# 300 μL of a 26.8 mM GaCl3/D-PBS solution was added to 2.70 mL of a 16.9 mM DFO/D-PBS solution, and the resultant solution was stirred overnight. The pH was adjusted to 7.4 with NaOH, and then the solution was filtered through a filter.
# 300 μL of 26.8 mM GaCl3/D-PBS solution was added to 2.70 mL of a 1.71 mM PEG-P[Asp(DFO)10]35/D-PBS solution (DFO concentration=16.9 mM), and the resultant solution was stirred overnight. The reaction solution was placed in an ultrafiltration membrane (MWCO=10 kD) and subjected to ultrafiltration five times. 3 mL of D-PBS was added to the purified solution, and the resultant solution was filtered through a filter. […]
# 100 μl of the prepared solution described above was intravenously administered (DFO: […]) to the tail vein of a model mouse of which the tumor size reached about 200 mm^3. […] After filling up to 10 mL with pure water and filtration with a hydrophobic filter, the gallium contents of the blood and the various organs were measured by ICP-MS. […]
# DLD-1 cells [4] = assay: Free iron in the cytoplasm detected with FerroOrange; type: cell-based, human; conditions: 2.00 mM DFO-concentration solution diluted 10-fold, 24 hours
# Procedure: To investigate whether DFO and PEG-P[Asp(DFO)m]n would decrease free iron in the cytoplasm, the free iron in the cytoplasm of cells treated with DFO and PEG-P[Asp(DFO)m]n was detected with FerroOrange.
# [Preparation of DFO Solution and PEG-P[Asp(DFO)10]35 Solution] • DFO/D-PBS solution: 2.00 mM • PEG-P[Asp(DFO)10]35/D-PBS solution: […] (DFO concentration=2.00 mM) [Observation with Confocal Microscope]
# DLD-1 cells were seeded on 35 mm^2 glass base dishes at 3.0×10^5 cells/well and pre-cultured at 37° C. under 5% CO2 for 24 hours. After removing the solution, 2 mL of the prepared solution described above, diluted 10-fold with RPMI, was added to each dish followed by incubating for 24 hours. After washing with 2 mL of serum-free RPMI, 1 mL of serum-free RPMI containing […] FerroOrange was added thereto followed by incubating in a dark place for 30 min. Thereafter, the fluorescence of FerroOrange was observed by CLSM.
# DLD-1 cells were seeded on a 96-well plate at 1.0×10^4 cells/well and pre-cultured at 37° C. under 5% CO2 for 24 hours. After removing the solution, 100 μL of the prepared solution described above, diluted 10-fold with RPMI, was added to each well followed by incubating for 24 hours. […] Then, the fluorescence intensity of FerroOrange was measured with a plate reader. […] The statistical significance was evaluated by Tukey's multiple comparison test (****p<0.0001).
# DLD-1 cells [5] = assay: DNA synthesis inhibition by BrdU staining; type: cell-based, human; conditions: 72 hours
# Procedure: To investigate the mechanism of cell cycle arrest in the S phase by DFO and PEG-P[Asp(DFO)m]n, DNA synthesis inhibition was evaluated by BrdU staining.
# [Preparation of DFO Solution and PEG-P[Asp(DFO)10]35 Solution] • DFO/D-PBS solution: 450 μM • PEG-P[Asp(DFO)10]35/D-PBS solution: […] (DFO concentration=600 μM) [Observation with Confocal Microscope]
# DLD-1 cells were seeded on 35 mm^2 glass base dishes at 1.0×10^5 cells/well and pre-cultured at 37° C. under 5% CO2 for 24 hours. After removing the solution, 3 mL of the prepared solution described above, diluted 10-fold with RPMI, was added to each well followed by incubating for 72 hours. Then, 330 μL of a 10 mM BrdU/D-PBS solution was added thereto followed by incubating for 1 hour. After removing the solution, 1 mL of 1.0 M HCl solution was added thereto followed by incubating for 10 min. After removing the solution, 1 mL of a 0.1 M sodium tetraborate buffer (pH 8.5) was added thereto followed by incubating for 30 min. […]
# DLD-1 cells were seeded on a 6-well plate at 2.0×10^5 cells/well and pre-cultured at 37° C. under 5% CO2 for 24 hours. […] The number of cells was measured, and the cells in each sample were made to the same number. […] Finally, the suspension was filtered through a cell strainer, and the fluorescence of BrdU was measured using FCM.
# DLD-1 cells [6] = assay: Apoptosis induction by PI staining and Annexin V staining; type: cell-based, human; conditions: 1.00 mM DFO-concentration solution diluted 10-fold, 24 hours
# Procedure: In order to investigate whether DFO and PEG-P[Asp(DFO)m]n would induce apoptosis, apoptotic cells were detected by PI staining and Annexin V staining.
# [Preparation of DFO Solution and PEG-P[Asp(DFO)10]35 Solution] • DFO/D-PBS solution: 1.00 mM • PEG-P[Asp(DFO)10]35/D-PBS solution: 100 μM (DFO concentration=1.00 mM)
# DLD-1 cells were seeded on a 6-well plate at 1.0×10^5 cells/well and pre-cultured at 37° C. under 5% CO2 for 24 hours. After removing the solution, 3 mL of the prepared solution described above, diluted 10-fold with RPMI, was added to each well followed by incubating for 24 hours. After washing with 3 mL of D-PBS, 700 μL of a Trypsin-EDTA solution was added thereto followed by incubating for 10 min. After confirming that the cells had peeled off under an optical microscope, 700 μL of RPMI was added and suspended sufficiently. The suspension was centrifuged at 1,200 rpm for 3 min to remove the supernatant. 500 μL of RPMI was added, the number of cells was measured, and the cells in each sample were made to the same number. The suspension was centrifuged at 1,200 rpm for 3 min to remove the supernatant. […] After adding 400 μL of the binding buffer, the suspension was filtered through a cell strainer, and the fluorescence of PI and Annexin V was measured using FCM. […] The statistical significance was evaluated by Tukey's multiple comparison test (**** p<0.0001).
# [7] = Non-Patent Documents 4 to 6; cited from earlier work
# [8] = test system: various cancer cell lines; conditions: Non-Patent Documents 1 to 3; cited from earlier work
smiles,measurement,setting,value
"CC(=O)N(O)CCCCCNC(=O)CCC(=O)N(O)CCCCCNC(=O)CCC(=O)N(O)CCCCCN [DFO, Deferoxamine mesylate]",cell cycle arrest,DLD-1 cells [1],induced cell cycle arrest in the S phase
same,cell proliferation suppression,DLD-1 cells [2],significantly suppressed the proliferation
same,blood retention (in words),[3],rapid disappearance from the blood; also recorded: disappeared from the blood at an early stage
same,free iron in the cytoplasm (FerroOrange fluorescence),DLD-1 cells [4],markedly decreased free iron in the cytoplasm
same,DNA synthesis inhibition (BrdU uptake),DLD-1 cells [5],BrdU uptake was significantly suppressed
same,proportion of apoptotic and necrotic cells,DLD-1 cells [6],significantly increased the proportion of apoptotic and necrotic cells
same,half-life of the in-blood concentration,[7],≤ 20 min
same,cell proliferation suppressive effect,[8],cell proliferation suppressive effect through cell cycle arrest
